Test results from PMC9964718, “Diterpenoids from Euphorbia gedrosiaca as Potential Anti-Proliferative Agents against Breast Cancer Cells” (Metabolites, 2023).

Key:
[1] = system: human colon (Caco-2) tumor cells; design: method as in PMID 30200407; conditions: cited from earlier work
[2] = system: MDA-MB-231 (ATCCR HTB-26) breast cancer cells; experiment: MTT viability assay, MDA-MB-231 breast cancer cells; type: cell-based; conditions: for IC50: Homo sapiens, MDA-MB-231, MTT, 24 h incubation, mean ± SD (n = 3), read-out: Cytotoxic activity IC50; for Cytotoxicity against MDA-MB-231 compared to MCF-7: comparison of MTT test results, MDA-MB-231 vs MCF-7
Procedure: (§1) MDA MB-231 and MCF-7 (ATCCR HTB-26 and ATCCR HTB-22) breast cancer cells, originated from Pasteur Institute (IPI, Tehran, I.R. Iran), were cultured in RPMI1640 with streptomycin, penicillin, and fetal bovine serum (FBS) (100 µg/mL, 100 units/mL, 10%) with criteria of 5% carbon dioxide, 37 °C, and 95% humidity for a few days. Mouse normal fibroblast cell line (NCTC clone 929 from the same institute) was cultured in DMEM+10% FBS+ 1% penicillin/streptomycin in the same conditions. After incubation, cells were seeded at 7 × 10^3 cells in each well of ninety-six well plates for 12 h. Then, the media were changed, and sample compounds in concentrations of 1, 10, and 100 µM were added. For L929 normal cell line, samples were added in the concentrations of 1, 10, 100, 250, and 500 µM. Placebo with the same amount of DMSO in each concentration used for compounds and Taxol in concentrations of 0.001, 0.01, 0.1, 1, and 10 µM were added as the negative and positive controls. After 24 h incubation time, the reduction agent (MTT, 5 mg/mL, 20 µL) was added to each well and incubated for 4 h to let the MTT be reduced into formazan derivative by the mitochondria of survived cells. The media was then changed with DMSO (200 µL) to solubilize the insoluble formazan crystals, and the absorbance was read by a Synergy ELISA reader (BioTek Instruments, Winooski, VT, USA) at 570 nm.

[3] = MTT viability assay, L929 normal fibroblast cell line; type: cell-based; conditions: L929 normal fibroblast cells (NCTC clone 929), L929 (normal) mouse fibroblast, 24 h incubation, mean ± SD (n = 3), read-out: Cytotoxic activity IC50
Procedure: as §1

[4] = system: MCF-7 (ATCCR HTB-22) breast cancer cells; experiment: MTT viability assay, MCF-7 breast cancer cells; type: cell-based; conditions: for IC50: Homo sapiens, MCF7, MCF-7, MTT, 24 h incubation, mean ± SD (n = 3), read-out: Cytotoxic activity IC50; for Potency in MTT assay: MCF-7, 100 μM concentration, P values less than 0.0001
Procedure: as §1

[5] = system: human lung (A549) tumor cells; design: method as in PMID 30200407; conditions: cited from earlier work
[6] = design: method as in PMID 30707022; conditions: compound isolated from roots of Euphorbia prolifera; cited from earlier work

Row | Structure (SMILES) | Cytotoxicity against proliferation [1] | IC50 [2] [µM] | Cytotoxicity against MDA-MB-231 compared to MCF-7 [2] | IC50 at 24 h [3] [µM] | IC50 [4] [µM] | Cytotoxicity against proliferation [5] | Potency in MTT assay [4] | Lipid-lowering activities and TG inhibitory effects [6]
1 | CCC(=O)O[C@@H]1[C@@H]2[C@@H](OC(=O)C(C)C)[C@@]3(COC(=O)c4cccnc4)[C@@H]([C@@H]4[C@H](C[C@H]3OC(C)=O)C4(C)C)[C@](C)(OC(C)=O)C(=O)[C@@]2(O)C[C@@H]1C [Compound 4, 3β-O-propanoyl-5α-O-isobutanoyl-7α,13β-O-diacetyl-17α-O-nicotinoyl-14-oxopremyrsinane] | moderate cytotoxicity | 27.3 ± 3.2 | almost three times higher cytotoxicity | 716 ± 26.9 | 74.4 ± 5.2 | moderate cytotoxicity | – | –
2 | CCC(=O)O[C@@H]1[C@@H]2[C@@H](OC(=O)C(C)CC)[C@@]3(COC(=O)c4cccnc4)[C@@H]([C@@H]4[C@H](C[C@H]3OC(C)=O)C4(C)C)[C@](C)(OC(C)=O)C(=O)[C@@]2(O)C[C@@H]1C (stereo partly drawn) [Compound 1, 3β-O-propanoyl-5α-O-methylbutanoyl-7α,13β-O-diacetyl-17α-O-nicotinoyl-14-oxopremyrsinane] | moderate cytotoxicity | 10.8 ± 2.1 | – | 528 ± 23.8 | 22.2 ± 2.4 | moderate cytotoxicity | reasonably potent | –
3 | CCC(=O)O[C@@H]1[C@@H]2[C@@H](OC(=O)C(C)C)[C@@]3(COC(C)=O)[C@@H]([C@@H]4[C@H](C[C@H]3OC(C)=O)C4(C)C)[C@](C)(OC(C)=O)C(=O)[C@@]2(O)C[C@@H]1C [Compound 3, 3β-O-propanoyl-5α-O-isobutanoyl-7α,13β, 17α -O-triacetyl-14-oxopremyrsinane] | moderate cytotoxicity | 24.5 ± 3.8 | almost three times higher cytotoxicity | 433 ± 22.1 | 62.6 ± 4.9 | moderate cytotoxicity | – | –
4 | CCC(=O)OC1C2C(OC(C)=O)C34COC(C)(C(OC(=O)c5ccccc5)C2(OC(C)=O)CC1(C)OC(C)=O)C3C(C(C)(C)OC(C)=O)C=CC4OC(C)=O (centres unmarked) [Compound 5, 2,5,7,10,15-O-pentaacetyl-3-O-propanoyl-14-O-benzoyl-13,17-epoxy-8-myrsinene] | – | 33.7 ± 4.6 | – | 596 ± 23.5 | 126 ± 4.2 | – | – | –
5 | CCC(=O)O[C@@H]1[C@@H]2[C@@H](OC(=O)c3ccccc3)[C@@]3(COC(C)=O)[C@@H]([C@@H]4[C@H](C[C@H]3OC(C)=O)C4(C)C)[C@](C)(OC(C)=O)C(=O)[C@@]2(O)C[C@@H]1C [Compound 2, 3β-O-propanoyl-5α-O-benzoyl-7α,13β, 17α -O-triacetyl-14-oxopremyrsinane] | – | 22.2 ± 4 | – | 553 ± 26.7 | 27.8 ± 2.5 | – | reasonably potent | acceptable
